Experimental data reported in ChEMBL document CHEMBL1201862, “PubChem BioAssay data set” (2004).
Activity calls are given as the source filed them.

What was measured:
[1] = target: T1, Heat shock factor protein 1 (Mus musculus, UniProt P38532); test: inhibition of MG132-induced HSE-luciferase signal, confirmation, cell-based, NIH3T3, luminescence, dose retest (AID 2382); type: functional;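 further: NIH3T3 fibroblasts with HSF1-driven luciferase reporter stressed by proteasome inhibitor MG132; luminescence from HSF1-driven luciferase expression after 8 hours of MG132 stress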
T1 sequence (P38532 whole entry): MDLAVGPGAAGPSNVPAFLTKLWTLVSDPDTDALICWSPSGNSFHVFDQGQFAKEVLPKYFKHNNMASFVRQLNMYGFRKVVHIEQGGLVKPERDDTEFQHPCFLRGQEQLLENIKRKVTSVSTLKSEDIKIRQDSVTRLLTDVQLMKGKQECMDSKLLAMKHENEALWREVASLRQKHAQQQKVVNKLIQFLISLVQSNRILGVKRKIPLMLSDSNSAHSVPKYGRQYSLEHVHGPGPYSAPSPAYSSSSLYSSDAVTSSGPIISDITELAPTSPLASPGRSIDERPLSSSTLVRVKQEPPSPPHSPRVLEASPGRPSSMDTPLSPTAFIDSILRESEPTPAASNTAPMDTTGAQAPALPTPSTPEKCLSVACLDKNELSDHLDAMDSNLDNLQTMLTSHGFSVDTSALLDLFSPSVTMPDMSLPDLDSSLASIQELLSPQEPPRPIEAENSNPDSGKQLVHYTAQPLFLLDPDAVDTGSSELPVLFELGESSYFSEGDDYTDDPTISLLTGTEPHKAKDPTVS

Jurkat = test: antigen receptor-induced NF-kB inhibitors, dose response, Jurkat, luciferase reporter, luminescence, B- and T-cell (AID 489004); type: functional, cell-based; conditions: Homo sapiens;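 further: NF-kB luciferase reporter Jurkat cells stimulated with PMA plus ionomycin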
[2] = cytotoxicity in HEK-293T NF-kB-Luc cells, dose response, cytotoxicity control for B/T-cell NF-kB inhibitor project, cell-based, uHTS hits (AID 489019); type: functional;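 further: IC50 reflects cytotoxicity as loss of cell viability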
[3] = target: Luciferin 4-monooxygenase (Photuris pensylvanica, UniProt Q27757); test: firefly luciferase enzyme inhibitors, dose response, counter-screen for HSF-1 reporter inhibitor project, biochemical, Cell Titer Glo, luminescence, cherry-picks (AID 588847)
Chain of Luciferin 4-monooxygenase (Q27757 whole entry): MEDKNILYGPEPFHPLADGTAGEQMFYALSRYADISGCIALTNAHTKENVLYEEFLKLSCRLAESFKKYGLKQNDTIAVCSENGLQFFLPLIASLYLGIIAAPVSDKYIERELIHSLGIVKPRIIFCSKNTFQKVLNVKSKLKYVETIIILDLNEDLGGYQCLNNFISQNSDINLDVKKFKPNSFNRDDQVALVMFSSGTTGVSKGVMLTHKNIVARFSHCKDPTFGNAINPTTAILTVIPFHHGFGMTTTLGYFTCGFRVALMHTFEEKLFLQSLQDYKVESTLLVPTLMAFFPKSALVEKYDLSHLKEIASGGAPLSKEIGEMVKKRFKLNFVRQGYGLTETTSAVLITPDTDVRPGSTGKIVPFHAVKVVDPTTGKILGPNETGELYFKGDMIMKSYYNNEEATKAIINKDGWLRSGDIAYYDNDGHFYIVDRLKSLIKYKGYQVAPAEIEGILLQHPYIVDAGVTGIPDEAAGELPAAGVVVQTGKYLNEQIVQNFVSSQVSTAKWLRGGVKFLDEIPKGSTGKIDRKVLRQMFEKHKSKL

[4] = Shn3 3'UTR reporter inhibitors, dose response, cell-based, Clone20 osteoblasts, firefly luciferase, cherry-picked (AID 624132); type: functional;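 further: firefly luciferase luminescence from reporter carrying the Shn3 3'UTR in osteoblasts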
[5] = HepG2 cell cytotoxicity, dose response, cytotoxicity control for Shn3 inhibitor project, CellTiter-Glo, cherry-picked (AID 624134); type: functional, cell-based
[6] = control 3'UTR Renilla luciferase suppression, dose response, counter-screen for Shn3 inhibitor project, cell-based, Clone20-Shn3RL, cherry-picked (AID 624133); type: functional
Protein skinhead-1 = target: T2, Protein skinhead-1 (Caenorhabditis elegans, UniProt P34707); type: functional
T2 sequence (P34707 whole entry): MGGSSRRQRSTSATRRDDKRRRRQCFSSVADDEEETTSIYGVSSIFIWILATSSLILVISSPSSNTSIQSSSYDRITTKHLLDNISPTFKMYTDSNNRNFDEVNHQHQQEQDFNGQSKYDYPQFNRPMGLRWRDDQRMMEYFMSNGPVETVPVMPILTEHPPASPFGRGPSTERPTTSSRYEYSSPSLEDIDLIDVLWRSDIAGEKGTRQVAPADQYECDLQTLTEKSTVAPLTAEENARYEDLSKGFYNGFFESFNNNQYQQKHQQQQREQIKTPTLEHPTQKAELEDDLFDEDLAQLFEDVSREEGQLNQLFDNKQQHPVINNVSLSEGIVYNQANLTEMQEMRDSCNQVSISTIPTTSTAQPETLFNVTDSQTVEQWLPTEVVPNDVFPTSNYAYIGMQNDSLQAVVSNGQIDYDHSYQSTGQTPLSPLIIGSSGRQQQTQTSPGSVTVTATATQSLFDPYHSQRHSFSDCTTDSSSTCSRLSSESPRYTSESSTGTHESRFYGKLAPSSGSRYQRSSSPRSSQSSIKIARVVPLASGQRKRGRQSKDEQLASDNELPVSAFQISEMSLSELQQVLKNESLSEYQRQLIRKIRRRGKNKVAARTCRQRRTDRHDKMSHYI

Paired box protein Pax-8 = Paired box protein Pax-8 (Homo sapiens, UniProt Q06710); test: inhibitors of PAX8-driven TPO luciferase reporter, dose response, RMG-I cells, cherry-pick (AID 687027); type: functional, cell-based;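 further: luciferase reporter driven by Pax8 target thyroperoxidase promoter measured by SteadyGlo luminescence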
Chain of Paired box protein Pax-8 (Q06710 whole entry): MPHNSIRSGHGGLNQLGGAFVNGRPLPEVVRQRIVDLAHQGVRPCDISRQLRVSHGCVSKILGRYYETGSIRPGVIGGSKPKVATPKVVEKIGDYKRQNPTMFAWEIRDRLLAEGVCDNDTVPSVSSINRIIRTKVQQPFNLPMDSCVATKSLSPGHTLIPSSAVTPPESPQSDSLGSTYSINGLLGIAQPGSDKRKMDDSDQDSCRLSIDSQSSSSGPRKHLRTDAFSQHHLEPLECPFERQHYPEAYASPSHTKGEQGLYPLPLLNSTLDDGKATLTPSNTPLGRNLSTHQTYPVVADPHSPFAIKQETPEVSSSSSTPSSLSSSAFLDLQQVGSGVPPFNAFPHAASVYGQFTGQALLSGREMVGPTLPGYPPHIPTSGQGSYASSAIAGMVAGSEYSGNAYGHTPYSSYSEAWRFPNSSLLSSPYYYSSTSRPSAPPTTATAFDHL

[7] = HepG2 cell cytotoxicity, dose response, cytotoxicity control, plate reader, cherry-pick, antagonist series (AID 743416); type: functional, cell-based
[8] = LGR2 antagonists, dose response, cell-based, HEK293, CRE-luciferase reporter, cherry pick, set 2 (AID 743343); type: functional;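 further: transfected cells were stimulated with diluted bursicon conditioned medium after compound addition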
[9] = MC4R antagonists, dose response, counter-screen for LGR2 antagonist project, cell-based, plate reader, cherry pick (AID 743444); type: functional;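 further: transfected HEK 293 cells stimulated with alpha-MSH peptide; potency of inhibitors of the alpha-MSH evoked signal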
[10] = HEK293 cell cytotoxicity, dose response, cytotoxicity control, plate reader, cherry-picked samples (AID 743446); type: functional, cell-based
[11] = target: T3, Microphthalmia-associated transcription factor (Homo sapiens, UniProt O75030); test: TRPM1 promoter luciferase signal decrease, dose response, MITF inhibitor project, cell-based, SK-MEL-5, cherry-picked, set 3 (AID 493073); type: functional
T3 sequence (O75030 whole entry): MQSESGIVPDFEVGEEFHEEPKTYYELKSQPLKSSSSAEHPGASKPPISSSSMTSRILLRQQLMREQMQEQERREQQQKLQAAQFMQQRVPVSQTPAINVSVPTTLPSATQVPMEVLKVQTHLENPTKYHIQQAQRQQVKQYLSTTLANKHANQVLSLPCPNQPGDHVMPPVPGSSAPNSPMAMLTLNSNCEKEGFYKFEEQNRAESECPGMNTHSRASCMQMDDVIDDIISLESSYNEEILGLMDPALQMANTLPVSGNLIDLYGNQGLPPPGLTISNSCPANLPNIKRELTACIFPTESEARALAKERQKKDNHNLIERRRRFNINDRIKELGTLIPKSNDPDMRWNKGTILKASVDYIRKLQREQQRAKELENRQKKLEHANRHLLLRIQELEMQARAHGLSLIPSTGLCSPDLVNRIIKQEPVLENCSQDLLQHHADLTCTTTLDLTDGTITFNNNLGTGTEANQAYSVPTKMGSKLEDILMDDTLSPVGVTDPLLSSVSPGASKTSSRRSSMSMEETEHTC

[12] = target: Apoptotic protease-activating factor 1 (Homo sapiens, UniProt O14727); type: functional
Chain of Apoptotic protease-activating factor 1 (O14727 whole entry): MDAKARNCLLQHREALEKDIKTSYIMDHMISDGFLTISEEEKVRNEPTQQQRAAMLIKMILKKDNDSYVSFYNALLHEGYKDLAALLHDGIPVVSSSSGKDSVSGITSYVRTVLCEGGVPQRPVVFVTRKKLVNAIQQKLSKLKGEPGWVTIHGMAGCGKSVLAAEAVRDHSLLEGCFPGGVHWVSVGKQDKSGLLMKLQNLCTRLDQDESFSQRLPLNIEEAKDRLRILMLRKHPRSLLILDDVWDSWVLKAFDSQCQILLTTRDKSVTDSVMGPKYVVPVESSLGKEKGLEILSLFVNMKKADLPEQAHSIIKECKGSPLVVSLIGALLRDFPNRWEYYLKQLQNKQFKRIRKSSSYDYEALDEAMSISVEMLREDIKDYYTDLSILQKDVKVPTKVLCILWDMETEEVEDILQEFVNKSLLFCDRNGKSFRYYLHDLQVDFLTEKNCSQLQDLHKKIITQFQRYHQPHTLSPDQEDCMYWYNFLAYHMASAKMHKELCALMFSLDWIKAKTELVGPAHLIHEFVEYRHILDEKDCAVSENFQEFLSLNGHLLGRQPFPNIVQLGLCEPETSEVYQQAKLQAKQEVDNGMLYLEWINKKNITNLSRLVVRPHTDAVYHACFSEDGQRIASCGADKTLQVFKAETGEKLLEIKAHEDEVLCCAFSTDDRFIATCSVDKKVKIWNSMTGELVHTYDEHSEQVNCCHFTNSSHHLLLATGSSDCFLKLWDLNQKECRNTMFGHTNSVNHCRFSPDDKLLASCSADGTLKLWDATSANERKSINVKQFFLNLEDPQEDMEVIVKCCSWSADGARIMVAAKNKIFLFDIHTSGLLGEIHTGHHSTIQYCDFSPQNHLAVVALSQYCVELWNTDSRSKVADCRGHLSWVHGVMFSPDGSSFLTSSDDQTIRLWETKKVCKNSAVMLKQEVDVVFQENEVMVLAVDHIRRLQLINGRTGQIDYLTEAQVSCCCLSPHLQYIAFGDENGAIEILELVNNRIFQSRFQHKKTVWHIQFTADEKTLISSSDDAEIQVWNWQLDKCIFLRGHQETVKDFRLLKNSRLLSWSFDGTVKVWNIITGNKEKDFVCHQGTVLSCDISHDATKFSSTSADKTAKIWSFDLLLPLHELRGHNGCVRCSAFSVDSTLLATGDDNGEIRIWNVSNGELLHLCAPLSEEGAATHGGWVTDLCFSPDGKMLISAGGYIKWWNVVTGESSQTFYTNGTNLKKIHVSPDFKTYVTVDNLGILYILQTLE

[13] = target: T4, Sentrin-specific protease 8 (Homo sapiens, UniProt Q96LD8); type: functional
T4 sequence (Q96LD8 whole entry): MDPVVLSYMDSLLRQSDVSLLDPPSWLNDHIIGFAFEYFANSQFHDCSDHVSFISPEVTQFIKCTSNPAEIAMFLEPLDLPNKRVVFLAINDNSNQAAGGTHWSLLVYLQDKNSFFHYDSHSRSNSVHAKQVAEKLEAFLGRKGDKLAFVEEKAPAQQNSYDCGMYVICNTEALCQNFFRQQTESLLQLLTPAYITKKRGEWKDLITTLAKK

[14] = target: T4, Sentrin-specific protease 8; type: functional; remark: listed apart in the source
Caspase-6 = target: T5, Caspase-6 (Homo sapiens, UniProt P55212); test: human caspase-6 inhibitors, dose response, biochemical, VEID-R110 fluorescence, cherry-pick (AID 720632)
T5 sequence (P55212 whole entry): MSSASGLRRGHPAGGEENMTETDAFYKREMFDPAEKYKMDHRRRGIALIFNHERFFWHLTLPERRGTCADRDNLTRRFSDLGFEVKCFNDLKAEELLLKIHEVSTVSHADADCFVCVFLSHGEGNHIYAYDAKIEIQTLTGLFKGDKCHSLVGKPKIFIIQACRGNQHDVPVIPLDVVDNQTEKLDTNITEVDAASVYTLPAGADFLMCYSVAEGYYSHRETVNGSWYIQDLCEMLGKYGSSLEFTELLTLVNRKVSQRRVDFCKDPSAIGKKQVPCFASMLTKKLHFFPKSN

Caspase-9 = Caspase-9 (Homo sapiens, UniProt P55211); test: caspase-9 enzyme inhibition, dose response, selectivity assay for caspase-6 inhibitor project, biochemical, fluorescence, plate reader, cherry-picked samples (AID 743293)
Chain of Caspase-9 (P55211 1-315 limits assumed): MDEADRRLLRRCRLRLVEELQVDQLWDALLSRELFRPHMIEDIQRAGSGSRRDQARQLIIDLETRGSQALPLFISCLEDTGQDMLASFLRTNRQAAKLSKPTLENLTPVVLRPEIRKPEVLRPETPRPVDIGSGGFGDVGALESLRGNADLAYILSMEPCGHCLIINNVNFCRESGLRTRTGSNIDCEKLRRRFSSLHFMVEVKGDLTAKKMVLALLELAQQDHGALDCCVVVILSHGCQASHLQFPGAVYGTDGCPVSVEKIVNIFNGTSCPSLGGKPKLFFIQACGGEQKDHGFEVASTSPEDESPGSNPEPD
Chain of Caspase-9 (P55211 331-416 limits assumed): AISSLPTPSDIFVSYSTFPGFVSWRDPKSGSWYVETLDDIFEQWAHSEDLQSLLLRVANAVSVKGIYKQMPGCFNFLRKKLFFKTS

Caspase-7 = Caspase-7 (Homo sapiens, UniProt P55210); test: human caspase-7 inhibitors, dose response, selectivity assay for caspase-6 inhibitor project, biochemical, DEVD-R110 fluorescence, cherry-pick (AID 743295)
Chain of Caspase-7 (P55210 24-198 limits assumed): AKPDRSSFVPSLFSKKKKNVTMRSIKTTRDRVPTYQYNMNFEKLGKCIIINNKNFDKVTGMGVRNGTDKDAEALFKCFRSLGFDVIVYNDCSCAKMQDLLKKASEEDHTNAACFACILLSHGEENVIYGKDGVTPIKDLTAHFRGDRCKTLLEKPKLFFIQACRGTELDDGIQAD
Chain of Caspase-7 (P55210 207-303 limits assumed): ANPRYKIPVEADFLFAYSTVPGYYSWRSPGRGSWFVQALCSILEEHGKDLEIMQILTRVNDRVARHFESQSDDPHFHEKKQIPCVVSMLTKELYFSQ

Caspase-8 = Caspase-8 (Homo sapiens, UniProt Q14790); test: caspase-8 inhibition counter-screen, dose response, selectivity assay for caspase-6 inhibitor project, biochemical, Z-IETD-R110 fluorescence, cherry-picked samples (AID 743294)
Chain of Caspase-8 (Q14790 217-374 limits assumed): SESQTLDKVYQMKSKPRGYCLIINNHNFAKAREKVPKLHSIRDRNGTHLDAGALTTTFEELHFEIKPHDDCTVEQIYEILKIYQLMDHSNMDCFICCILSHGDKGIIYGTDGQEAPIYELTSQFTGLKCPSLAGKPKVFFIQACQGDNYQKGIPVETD
Chain of Caspase-8 (Q14790 385-479 limits assumed): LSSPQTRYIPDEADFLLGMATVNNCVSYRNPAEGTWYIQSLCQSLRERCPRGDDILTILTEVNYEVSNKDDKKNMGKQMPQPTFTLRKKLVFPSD

[15] = target: Botulinum neurotoxin type A (Clostridium botulinum (strain Hall / ATCC 3502 / NCTC 13319 / Type A), UniProt P0DPI1); test: High-throughput multiplex microsphere dose response for inhibitors of toxin protease, specifically Botulinum neurotoxin light chain A protease, compounds from Cherry Pick 01.; type: functional; conditions: read-out: EC50_MICROM
Chain of Botulinum neurotoxin type A (P0DPI1 2-448 limits assumed): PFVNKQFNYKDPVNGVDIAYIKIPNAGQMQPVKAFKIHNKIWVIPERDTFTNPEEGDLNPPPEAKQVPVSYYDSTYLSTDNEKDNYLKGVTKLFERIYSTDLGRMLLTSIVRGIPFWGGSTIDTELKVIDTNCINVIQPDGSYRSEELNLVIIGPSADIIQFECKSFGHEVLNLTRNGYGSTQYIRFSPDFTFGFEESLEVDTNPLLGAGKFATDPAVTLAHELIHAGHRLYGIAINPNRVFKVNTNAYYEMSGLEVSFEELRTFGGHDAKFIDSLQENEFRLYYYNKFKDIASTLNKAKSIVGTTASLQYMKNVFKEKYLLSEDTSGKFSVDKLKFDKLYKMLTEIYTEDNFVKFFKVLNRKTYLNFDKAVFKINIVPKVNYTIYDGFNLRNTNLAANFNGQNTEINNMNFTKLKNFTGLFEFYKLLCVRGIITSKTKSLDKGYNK

In the case of CN(C(=O)OC(C)(C)C)c1ccc(-c2nc3ccccc3s2)cc1, the EC50 [1] is reported as < 0.16 µM (active), the IC50 (Jurkat) is reported as < 0.16 µM (active) and the IC50 [2] is reported as > 80 µM (inactive). For the same molecule, the AC50 [3] was 1.42 µM (active), the AC50 [4] was < 0.26 µM (active) and the AC50 [5] was > 70 µM (inactive). For the same molecule, the AC50 [6] was 7.35 µM (active), the IC50 (Protein skinhead-1) was > 100 µM (inactive) and the AC50 (Paired box protein Pax-8) was 0.379 µM (active). For the same molecule, the AC50 [7] was > 52 µM (inactive), the AC50 [8] was < 0.068 µM (active) and the AC50 [9] was < 0.068 µM (active). The AC50 [10] was 46.5 µM (active).
With Oc1cc(NCCN2CCOCC2)cc2cccnc12 the AC50 [11] was 25.9 µM (active), the IC50 [12] was 8.53 µM (active) and the IC50 [13] was 4.63 µM (active). The IC50 [14] was 2.68 µM (active), the AC50 (Caspase-6) was 3.39 µM (active) and the AC50 (Caspase-9) was 15.9 µM (active). The AC50 (Caspase-7) was 3.53 µM (active) and the AC50 (Caspase-8) was 17.6 µM (active).
For CSc1nnc2c(n1)c(C)nn2-c1cccc(C)c1, the EC50 [15] was 6.4 µM (active).
